Legend:
Assay type in all cases: cell-based
Candida albicans = experiment: In vitro Anti-Candida activity, dilutions in Sabouraud's Dextrose Agar (Table III); conditions: 48 h
Procedure: (§1) All the tests were carried out and (when necessary) scored under standard conditions. "MIC" means "minimum inhibitory concentration."
In vitro Anti-Candida Activity of 2-aminoalkyl-3-phenyl-
indoles of the formula I. Dilutions in Sabouraud's Dextrose
MIC (mcg/ml) after 48 hours

Pseudomonas acruginosa = experiment: In vitro antibacterial activity, dilution in Mueller Hinton Agar (Table I)
Procedure: as §1
(§2) In vitro Antibacterial Activity of 2-aminoalkyl-3-phenyl-
(§3) indoles of the formula I. Dilution in Mueller Hinton Agar pH 7.4

Escherichia coli = experiment: as above
Procedure: as §1, §2, §3

Klebsiella = experiment: as above
Procedure: as §1, §2, §3

Proteus rettgeri = experiment: as above; conditions: Providencia rettgeri; 'Proteus rettgeri mirabilis' [sic]; Mueller Hinton Agar pH 7.4
Procedure: as §1, §2, §3

[1] = strain Atkisson, after 48 hours
[2] = strain Bertrand, after 48 hours
[3] = strain Burnside, after 48 hours
[4] = strain Kenndy 2, after 48 hours
[5] = strain Kennedy 1, after 48 hours
[6] = strain Shurelli, after 48 hours
[7] = pH 7.4, strain 130, Mueller Hinton Agar pH 7.4
[8] = pH 7.4, strain 138, Mueller Hinton Agar pH 7.4
[9] = pH 7.4, strain 762, Mueller Hinton Agar pH 7.4
[10] = pH 7.4, strain 8709, Mueller Hinton Agar pH 7.4
[11] = pH 7.4, strain Trav. 1, Mueller Hinton Agar pH 7.4
[12] = pH 7.4, strain 777, Mueller Hinton Agar pH 7.4
[13] = pH 7.4, strain 1574-1, Mueller Hinton Agar pH 7.4
[14] = pH 7.4, strain 4195, Mueller Hinton Agar pH 7.4
[15] = pH 7.4, strain 10536, Mueller Hinton Agar pH 7.4
[16] = pH 7.4, strain JR66, Mueller Hinton Agar pH 7.4
[17] = pH 7.4, strain 121, Mueller Hinton Agar pH 7.4
[18] = pH 7.4, strain 3020, Mueller Hinton Agar pH 7.4
[19] = pH 7.4, strain AD17, Mueller Hinton Agar pH 7.4
[20] = pH 7.4, strain AD22, Mueller Hinton Agar pH 7.4
[21] = pH 7.4, strain G3694, Mueller Hinton Agar pH 7.4

Measured: MIC

NCc1[nH]c2ccc(Cl)cc2c1-c1ccccc1F [A, 2-Aminomethyl-5-chloro-3-(2-fluorophenyl)indole]
75 µg/mL: Candida albicans; strain 1, after 48 hours | Candida albicans; strain 2, after 48 hours | Candida albicans; strain 3, after 48 hours | Candida albicans; strain 4, after 48 hours | Candida albicans; strain 5, after 48 hours | Candida albicans; strain 6, after 48 hours | Candida albicans; strain 8, after 48 hours | Candida albicans; strain 9, after 48 hours | Candida albicans; strain 29, after 48 hours | Candida albicans; [1] | Candida albicans; [2] | Candida albicans; strain Bevan, after 48 hours | Candida albicans; strain Blunden, after 48 hours | Candida albicans; strain Bognay, after 48 hours | Candida albicans; strain Boyer, after 48 hours | Candida albicans; strain Burke, after 48 hours | Candida albicans; [3] | Candida albicans; strain Collins, after 48 hours | Candida albicans; strain Fix, after 48 hours | Candida albicans; strain Frazier, after 48 hours | Candida albicans; strain Fulcher, after 48 hours | Candida albicans; strain Gay, after 48 hours | Candida albicans; strain Hons, after 48 hours | Candida albicans; strain Johnson, after 48 hours | Candida albicans; [4] | Candida albicans; strain Lehtman, after 48 hours | Candida albicans; strain Lusk, after 48 hours | Candida albicans; strain Merkel, after 48 hours | Candida albicans; strain Sherod, after 48 hours | Candida albicans; [6] | Candida albicans; strain Sparks, after 48 hours | Candida albicans; strain Tyner, after 48 hours
17.5 µg/mL: Pseudomonas acruginosa; [7] | Pseudomonas acruginosa; [8] | Pseudomonas acruginosa; [9] | Pseudomonas acruginosa; [10] | Pseudomonas acruginosa; [11] | Proteus rettgeri
37.5 µg/mL: Candida albicans; [5] | Candida albicans; strain Newcomb, after 48 hours
7.5 µg/mL: Escherichia coli; [13] | Escherichia coli; [15] | Klebsiella; [17] | Klebsiella; [18] | Klebsiella; [19] | Klebsiella; [20] | Klebsiella; [21]
3 µg/mL: Escherichia coli; [12] | Escherichia coli; [14] | Escherichia coli; [16]

NCc1[nH]c2ccc(Cl)cc2c1-c1c(F)cccc1F [B, 2-aminomethyl-5-chloro-3-(2,6-difluorophenyl)indole]
17.5 µg/mL: Pseudomonas acruginosa; [7] | Pseudomonas acruginosa; [8] | Pseudomonas acruginosa; [9] | Pseudomonas acruginosa; [10] | Pseudomonas acruginosa; [11] | Klebsiella; [17] | Klebsiella; [19] | Proteus rettgeri
150 µg/mL: Candida albicans; strain 1, after 48 hours | Candida albicans; strain 3, after 48 hours | Candida albicans; strain 6, after 48 hours | Candida albicans; strain 8, after 48 hours | Candida albicans; [2] | Candida albicans; strain Bevan, after 48 hours | Candida albicans; strain Boyer, after 48 hours | Candida albicans; [3] | Candida albicans; strain Frazier, after 48 hours | Candida albicans; strain Gay, after 48 hours | Candida albicans; strain Hons, after 48 hours | Candida albicans; strain Johnson, after 48 hours | Candida albicans; [4] | Candida albicans; strain Lehtman, after 48 hours | Candida albicans; strain Sherod, after 48 hours | Candida albicans; [6] | Candida albicans; strain Sparks, after 48 hours | Candida albicans; strain Tyner, after 48 hours
7.5 µg/mL: Escherichia coli; [12] | Escherichia coli; [13] | Escherichia coli; [14] | Escherichia coli; [15] | Escherichia coli; [16] | Klebsiella; [18] | Klebsiella; [20] | Klebsiella; [21]
37.5 µg/mL: Candida albicans; strain Newcomb, after 48 hours
75 µg/mL: Candida albicans; strain 2, after 48 hours | Candida albicans; strain 4, after 48 hours | Candida albicans; strain 5, after 48 hours | Candida albicans; strain 9, after 48 hours | Candida albicans; strain 29, after 48 hours | Candida albicans; [1] | Candida albicans; strain Blunden, after 48 hours | Candida albicans; strain Bognay, after 48 hours | Candida albicans; strain Burke, after 48 hours | Candida albicans; strain Collins, after 48 hours | Candida albicans; strain Fix, after 48 hours | Candida albicans; strain Fulcher, after 48 hours | Candida albicans; [5] | Candida albicans; strain Lusk, after 48 hours | Candida albicans; strain Merkel, after 48 hours

NCc1[nH]c2ccc(Cl)cc2c1-c1ccccc1 [C, 2-(1-aminomethyl)-5-chloro-3-phenylindole]
37.5 µg/mL: Candida albicans; strain 4, after 48 hours | Candida albicans; strain 29, after 48 hours | Candida albicans; [5] | Candida albicans; strain Newcomb, after 48 hours | Pseudomonas acruginosa; [9]
75 µg/mL: Candida albicans; strain 1, after 48 hours | Candida albicans; strain 2, after 48 hours | Candida albicans; strain 3, after 48 hours | Candida albicans; strain 5, after 48 hours | Candida albicans; strain 6, after 48 hours | Candida albicans; strain 8, after 48 hours | Candida albicans; strain 9, after 48 hours | Candida albicans; [1] | Candida albicans; [2] | Candida albicans; strain Bevan, after 48 hours | Candida albicans; strain Blunden, after 48 hours | Candida albicans; strain Bognay, after 48 hours | Candida albicans; strain Boyer, after 48 hours | Candida albicans; strain Burke, after 48 hours | Candida albicans; [3] | Candida albicans; strain Collins, after 48 hours | Candida albicans; strain Fix, after 48 hours | Candida albicans; strain Frazier, after 48 hours | Candida albicans; strain Fulcher, after 48 hours | Candida albicans; strain Gay, after 48 hours | Candida albicans; strain Hons, after 48 hours | Candida albicans; strain Johnson, after 48 hours | Candida albicans; [4] | Candida albicans; strain Lehtman, after 48 hours | Candida albicans; strain Lusk, after 48 hours | Candida albicans; strain Merkel, after 48 hours | Candida albicans; strain Sherod, after 48 hours | Candida albicans; [6] | Candida albicans; strain Sparks, after 48 hours | Candida albicans; strain Tyner, after 48 hours
3 µg/mL: Escherichia coli; [12] | Escherichia coli; [13] | Escherichia coli; [14] | Escherichia coli; [16] | Klebsiella; [17] | Klebsiella; [18] | Klebsiella; [20] | Klebsiella; [21]
7.5 µg/mL: Escherichia coli; [15] | Klebsiella; [19] | Proteus rettgeri
17.5 µg/mL: Pseudomonas acruginosa; [7] | Pseudomonas acruginosa; [8] | Pseudomonas acruginosa; [10] | Pseudomonas acruginosa; [11]

NCc1[nH]c2cc(Br)c(Cl)cc2c1-c1ccccc1 [D, 2-aminomethyl-6-bromo-5-chloro-3-phenylindole]
150 µg/mL: Candida albicans; strain 1, after 48 hours | Candida albicans; strain 2, after 48 hours | Candida albicans; strain 6, after 48 hours | Candida albicans; strain 8, after 48 hours | Candida albicans; strain 9, after 48 hours | Candida albicans; [1] | Candida albicans; [2] | Candida albicans; strain Bevan, after 48 hours | Candida albicans; strain Boyer, after 48 hours | Candida albicans; strain Burke, after 48 hours | Candida albicans; strain Frazier, after 48 hours | Candida albicans; strain Gay, after 48 hours | Candida albicans; strain Hons, after 48 hours | Candida albicans; strain Johnson, after 48 hours | Candida albicans; [4] | Candida albicans; strain Lehtman, after 48 hours | Candida albicans; strain Sherod, after 48 hours | Candida albicans; [6] | Candida albicans; strain Sparks, after 48 hours
3 µg/mL: Escherichia coli; [12] | Escherichia coli; [13] | Escherichia coli; [14] | Escherichia coli; [15] | Escherichia coli; [16] | Klebsiella; [17] | Klebsiella; [18] | Klebsiella; [19] | Klebsiella; [20] | Klebsiella; [21]
17.5 µg/mL: Candida albicans; strain Blunden, after 48 hours | Candida albicans; [5] | Candida albicans; strain Newcomb, after 48 hours | Pseudomonas acruginosa; [7] | Pseudomonas acruginosa; [9]
7.5 µg/mL: Pseudomonas acruginosa; [8] | Pseudomonas acruginosa; [10] | Pseudomonas acruginosa; [11] | Proteus rettgeri
37.5 µg/mL: Candida albicans; strain 4, after 48 hours
75 µg/mL: Candida albicans; strain 3, after 48 hours | Candida albicans; strain 5, after 48 hours | Candida albicans; strain 29, after 48 hours | Candida albicans; strain Bognay, after 48 hours | Candida albicans; [3] | Candida albicans; strain Collins, after 48 hours | Candida albicans; strain Fix, after 48 hours | Candida albicans; strain Fulcher, after 48 hours | Candida albicans; strain Lusk, after 48 hours | Candida albicans; strain Merkel, after 48 hours | Candida albicans; strain Tyner, after 48 hours

NCc1[nH]c2ccc(Cl)cc2c1-c1ccc(Cl)cc1Cl [E]
3 µg/mL: Escherichia coli; [12] | Escherichia coli; [13] | Escherichia coli; [14] | Escherichia coli; [15] | Escherichia coli; [16] | Klebsiella; [18] | Klebsiella; [20] | Klebsiella; [21]
7.5 µg/mL: Pseudomonas acruginosa; [7] | Pseudomonas acruginosa; [10] | Klebsiella; [17] | Klebsiella; [19]
37.5 µg/mL: Candida albicans; strain 1, after 48 hours | Candida albicans; strain 2, after 48 hours | Candida albicans; strain 3, after 48 hours | Candida albicans; strain 6, after 48 hours | Candida albicans; strain 8, after 48 hours | Candida albicans; strain 9, after 48 hours | Candida albicans; strain 29, after 48 hours | Candida albicans; [1] | Candida albicans; [2] | Candida albicans; strain Bevan, after 48 hours | Candida albicans; strain Blunden, after 48 hours | Candida albicans; strain Bognay, after 48 hours | Candida albicans; strain Boyer, after 48 hours | Candida albicans; strain Burke, after 48 hours | Candida albicans; [3] | Candida albicans; strain Collins, after 48 hours | Candida albicans; strain Fix, after 48 hours | Candida albicans; strain Frazier, after 48 hours | Candida albicans; strain Fulcher, after 48 hours | Candida albicans; strain Gay, after 48 hours | Candida albicans; strain Hons, after 48 hours | Candida albicans; strain Johnson, after 48 hours | Candida albicans; [4] | Candida albicans; [5] | Candida albicans; strain Lehtman, after 48 hours | Candida albicans; strain Lusk, after 48 hours | Candida albicans; strain Merkel, after 48 hours | Candida albicans; strain Sherod, after 48 hours | Candida albicans; [6] | Candida albicans; strain Sparks, after 48 hours | Candida albicans; strain Tyner, after 48 hours
17.5 µg/mL: Candida albicans; strain 4, after 48 hours | Candida albicans; strain 5, after 48 hours | Candida albicans; strain Newcomb, after 48 hours | Pseudomonas acruginosa; [8] | Pseudomonas acruginosa; [9] | Pseudomonas acruginosa; [11] | Proteus rettgeri

Reference: patent US4122034A, “Antimicrobial compositions” (Schering Corporation, priority 1975, dated 1978)
